Measured values: patent US9926304B2, “1-(arylmethyl)quinazoline-2,4(1H,3H)-diones as PARP inhibitors and the use thereof” (Impact Therapeutics, Inc., priority 2011, dated 2018)

What was measured:
[1] = test system: SW620 human colorectal cancer cells; test: MTT based cell viability assay: potentiation of the growth inhibiting activity of MMS; settings: Homo sapiens, SW-620, 120 h, read-out: IC50 (nM), potentiation of the growth inhibiting activity of MMS, SW620 cells, 1.7 μg/ml MMS, 5 days (120 hours), MTT
Experimental: Briefly, SW620 human colorectal cancer cells were used to measure the cell growth inhibiting activity of DNA alkylating anticancer drug MMS. […] SW620 cells were grown and maintained in RPMI1640 (Gibco) medium supplemented with 10% FBS (Hyclone). In the first day of experiment, 4000 cells were seeded to each well of a 96-well cell culture plate and incubated at 37° C. and 5% CO2 in a cell culture incubator overnight. In the next day, the cell culture medium was removed. […] The serial dilutions of the reference compounds and the compounds to be tested were made with a 1:3 and 1:10 fashion in DMSO. The 10-fold concentrated solutions of these compounds were made by mixing 10 μl of the serial dilutions in DMSO with 90 μl fresh medium. The final concentration of DMSO in the medium was 1%. The cells were incubated at 37° C. in 5% CO2 cell culture incubator for additional 5 days (120 hours). Afterwards, the 96-well cell culture plate was taken out and 20 μl of MTT solution was added to each well and incubated at 37° C. for 4 h. The medium was removed and 100 μl DMSO was added to each well. The 96-well cell culture plates were shaked adequately for 10 min and read in a Varioskan Flash plate reader (Thermo Fisher Scientific) at 520 and 690 nm. The data were analyzed by Prism 5 software (GraphPad). The obtained 520 nm absorbance readings subtracting corresponding 690 nm reading were analyzed and plotted against the Log scale of the compound concentrations.

[2] = test system: Human breast cancer cell line T47D; test: Cell based caspase-3 activity assay: potentiation of MMS induced apoptosis; settings: Homo sapiens, T47D, 24 h, T47D cells, 11.1 μg/ml MMS, 24 hours, intracellular caspase-3 activity; read-out: EC50 (nM), potentiation of the apoptosis inducing activity of MMS
Summary of the method: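 T47D cells were exposed for 24 h to compound plus a minimally apoptotic MMS dose (medium containing 11.1 μg/ml MMS). Lysates were incubated 3 h at 37 °C with (Ac-DEVD)2-R110 caspase-3 substrate (20 μM in added buffer) and read at ex 496/em 520 nm. EC50 came from a sigmoidal fit of RFU versus log concentration.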

[3] = test system: BRCA-2 deficient CAPAN-1 human pancreatic cancer cells; test: MTT based cell viability assay: growth inhibition of BRCA-2 deficient CAPAN-1 cells; settings: 240 h, compound alone, 10 day assay
Excerpt: Determination of the cell growth inhibiting activity of 1-(3-(4-(pyrimidin-2-yl)piperazine-1-carbonyl)benzyl)quinazoline-2,4(1H,3H)-dione and analogs on BRCA-2 deficient CAPAN-1 pancreatic duck cancer cells using a MTT based cell viability assay
BRCA-deficient cancer cells are sensitive to PARP inhibition. In the presence of PARP inhibitors, BRCA-deficient cancer cells could not grow and eventually will lead to death of cells. BRCA-2 deficient CAPAN-1 human pancreatic cancer cells were used to test the growth inhibiting activity of substituted 1-(arylmethyl)quinazoline-2,4(1H,3H)-diones. Briefly, CAPAN-1 cells are grown and maintained in IMEM medium supplemented with 20% FBS. The assay takes 10 days to finish. On day 1, 6000 CAPAN-1 cells are seeded to each well of a 96-well plate. The cells are incubated at 37° C. in a cell culture incubator overnight. In the next day, serial dilutions of compounds to be tested and reference compound (AZD2281) were prepared with a 1:3 and 1:10 fashion in DMSO. Ten-fold compound solutions were made by mixing 10 μl DMSO serial dilution solutions with 90 μl fresh growth medium. The cell culture medium was removed and 180 μl fresh media with FBS and 20 μl of compound solutions were added to each well. The final concentration of DMSO was 1%. Cells were then returned to the CO2 cell culture incubator and incubated at 37° C. for two days (day 3 and day 4). On day 5, the same procedure as what was done on day 2 was repeated. Cell culture medium was removed and fresh medium containing serial dilutions of compounds or reference compounds were added. Cells were returned to the CO2 cell culture incubator and incubated for two more days. On day 8, same procedure was repeated again and fresh medium containing the testing compounds or reference compounds were added and incubated for an additional 2 days. On day 10, 20 μl of MTT reagent (5 mg/ml) was added to each well of the cell culture plate and incubated for 4 h. The cell culture media was removed and 100 μl DMSO was added to each well. The 96-well cell culture plates were shaked horizontally for 10 min and readed in a Varioskan Flash plate reader (Thermo Fisher Scientific) at 520 and 690 nm. The obtained 520 nm absorbance readings subtracting corresponding 690 nm reading were analyzed using a commercial graphic software (GraphPad Prism 5) and plotted against the Log scale of the compound concentrations.

| SMILES | IC50 [1] | EC50 [2] | IC50 [3] |
| --- | --- | --- | --- |
| O=C(c1cccc(Cn2c(=O)[nH]c(=O)c3ccccc32)c1)N1CCN(c2cnccn2)CC1 [Example 20, 1-(3-(4-(Pyrazin-2-yl)piperazine-1-carbonyl)benzyl)quinazoline-2,4(1H,3H)-dione] | 391 nM | 139 nM | 4940 nM |
| O=C(c1cccc(Cn2c(=O)[nH]c(=O)c3ccccc32)n1)N1CCN(c2ccccn2)CC1 [Example 70, 1-((2-(4-(Pyridin-2-yl)piperazine-1-carbonyl)pyridin-6-yl)methyl)quinazoline-2,4(1H,3H)-dione] | 136 nM | 34 nM | 339 nM |
| O=C(c1cc(Cn2c(=O)[nH]c(=O)c3ccccc32)ccc1Cl)N1CCN(c2ncccn2)CC1 [Example 65, 1-(4-Chloro-3-(4-(pyrimidin-2-yl)piperazine-1-carbonyl)benzyl)quinazoline-2,4(1H,3H)-dione] | 417 nM | 373 nM | 3190 nM |
| O=C(c1ccc(F)c(Cn2c(=O)[nH]c(=O)c3ccccc32)c1)N1CCN(C(=O)C2CCCC2)CC1 [Example 48, 1-(3-(4-(Cyclopentylcarbonyl)piperazine-1-carbonyl)-6-fluorobenzyl)quinazoline-2,4(1H,3H)-dione] | 56 nM | 8.2 nM | 168 nM |
| O=C(c1cccc(Cn2c(=O)[nH]c(=O)c3ccccc32)c1)N1CCN(c2nsc3ccccc23)CC1 [Example 27, 1-(3-(4-(Benzo[d]isothiazol-3-yl)piperazine-1-carbonyl)benzyl)quinazoline-2,4(1H,3H)-dione] | 83 nM | 51 nM | 281 nM |
| O=C(c1ccc(Br)cc1)N1CCN(C(=O)c2cccc(Cn3c(=O)[nH]c(=O)c4ccccc43)c2)CC1 [Example 11, 1-(3-(4-(4-Bromobenzoyl)piperazine-1-carbonyl)benzyl)quinazoline-2,4(1H,3H)-dione] | 618 nM | 214 nM | 1840 nM |
| O=C(c1ccc(F)c(Cn2c(=O)[nH]c(=O)c3cc(Cl)ccc32)c1)N1CCN(C(=O)C2CCCC2)CC1 [Example 124, 6-Chloro-1-(3-(4-(cyclopentylcarbonyl)piperazine-1-carbonyl)-6-fluorobenzyl)quinazoline-2,4(1H,3H)-dione] | 9.9 nM | 3.8 nM | 137 nM |
| O=C(c1cccs1)N1CCN(C(=O)c2cc(Cn3c(=O)[nH]c(=O)c4c(Cl)cccc43)ccc2F)CC1 [Example 107, 5-Chloro-1-(4-fluoro-3-(4-(thiophene-2-carbonyl)piperazine-1-carbonyl)benzyl)quinazoline-2,4(1H,3H)-dione] | 6.3 nM | 9.5 nM | 161 nM |
| O=C(c1cccc(Cn2c(=O)[nH]c(=O)c3ccc(Cl)cc32)c1)N1CCN(c2ncccn2)CC1 [Example 161, 7-Chloro-1-(3-(4-(pyrimidin-2-yl)piperazine-1-carbonyl)benzyl)quinazoline-2,4(1H,3H)-dione] | 506 nM | 405 nM | 3550 nM |
| O=C(c1cc(Cn2c(=O)[nH]c(=O)c3c(Cl)cccc32)ccc1F)N1CCN(C(=O)C2CCCC2)CC1 [Example 104, 5-Chloro-1-(3-(4-(cyclopentylcarbonyl)piperazine-1-carbonyl)-4-fluorobenzyl)quinazoline-2,4(1H,3H)-dione] | 8.3 nM | 2.6 nM | 452 nM |
| O=C(c1cc(Cn2c(=O)[nH]c(=O)c3ccccc32)ccc1F)N1CCN(c2cnccn2)CC1 [Example 42, 1-(4-Fluoro-3-(4-(pyrazin-2-yl)piperazine-1-carbonyl)benzyl)quinazoline-2,4(1H,3H)-dione] | 78 nM | 11 nM | 2540 nM |
| O=C(c1ccc(F)c(Cn2c(=O)[nH]c(=O)c3cc(F)ccc32)c1)N1CCN(c2ccccn2)CC1 [Example 150, 6-Fluoro-1-(6-fluoro-3-(4-(pyridin-2-yl)piperazine-1-carbonyl)benzyl)quinazoline-2,4(1H,3H)-dione] | 25 nM | 16 nM | 176 nM |
| O=C(c1cc(Cn2c(=O)[nH]c(=O)c3c(F)cccc32)ccc1F)N1CCN(C(=O)C2CCCCC2)CC1 [Example 134, 1-(3-(4-(Cyclohexylcarbonyl)piperazine-1-carbonyl)-4-fluorobenzyl)-5-fluoroquinazoline-2,4(1H,3H)-dione] | 5.8 nM | 4.7 nM | 45 nM |
| O=C(c1cccc(Cn2c(=O)[nH]c(=O)c3ccccc32)n1)N1CCN(C(=O)C2CCCC2)CC1 [Example 69, 1-((2-(4-(Cyclopentylcarbonyl)piperazine-1-carbonyl)pyridin-6-yl)methyl)quinazoline-2,4(1H,3H)-dione] | 352 nM | 76 nM | 1980 nM |
| O=C(c1cccc(Cn2c(=O)[nH]c(=O)c3c(Cl)cccc32)c1)N1CCN(C(=O)C2CCCC2)CC1 [Example 101, 5-Chloro-1-(3-(4-(cyclopentylcarbonyl)piperazine-1-carbonyl)benzyl)quinazoline-2,4(1H,3H)-dione] | 117 nM | 20 nM | 1050 nM |
| Cc1ccc2c(c1)c(=O)[nH]c(=O)n2Cc1ccc(F)c(C(=O)N2CCN(c3ncccn3)CC2)c1 [Example 83, 1-(4-Fluoro-3-(4-(pyrimidin-2-yl)piperazine-1-carbonyl)benzyl)-6-methylquinazoline-2,4(1H,3H)-dione] | 72 nM | 21 nM | 746 nM |
| O=C(c1cc(Cn2c(=O)[nH]c(=O)c3cc(Cl)ccc32)ccc1F)N1CCN(C(=O)C2CCCCC2)CC1 [Example 119, 6-Chloro-1-(3-(4-(cyclohexylcarbonyl)piperazine-1-carbonyl)-4-fluorobenzyl)quinazoline-2,4(1H,3H)-dione] | 0.72 nM | 3 nM | 56 nM |
| O=C(c1ccc(F)c(Cn2c(=O)[nH]c(=O)c3ccccc32)c1)N1CCN(c2ccccn2)CC1 [Example 51, 1-(6-Fluoro-3-(4-(pyridin-2-yl)piperazine-1-carbonyl)benzyl)quinazoline-2,4(1H,3H)-dione] | 33 nM | 20 nM | 402 nM |
| O=C(c1cccc(Cn2c(=O)[nH]c(=O)c3cc(F)ccc32)n1)N1CCN(c2ncccn2)CC1 [Example 199, 6-Fluoro-1-((2-(4-(pyrimidin-2-yl)piperazine-1-carbonyl)pyridin-6-yl)methyl)quinazoline-2,4(1H,3H)-dione] | 19 nM | 4.9 nM | 948 nM |
| O=C(c1cc(Cn2c(=O)[nH]c(=O)c3cc(Cl)ccc32)ccc1F)N1CCN(c2ncccn2)CC1 [Example 117, 6-Chloro-1-(4-fluoro-3-(4-(pyrimidin-2-yl)piperazine-1-carbonyl)benzyl)quinazoline-2,4(1H,3H)-dione] | 5.1 nM | 5.8 nM | 39 nM |
| O=C(c1ccco1)N1CCN(C(=O)c2cc(Cn3c(=O)[nH]c(=O)c4cc(F)ccc43)ccc2F)CC1 [Example 185, 6-Fluoro-1-(4-fluoro-3-(4-(furan-2-carbonyl)piperazine-1-carbonyl)benzyl)quinazoline-2,4(1H,3H)-dione] | 6.7 nM | 2.1 nM | 358 nM |
| O=C(c1cc(Cn2c(=O)[nH]c(=O)c3c(Cl)cccc32)ccc1F)N1CCN(C(=O)C2CCC2)CC1 [Example 168, 5-Chloro-1-(3-(4-(cyclobutylcarbonyl)piperazine-1-carbonyl)-4-fluorobenzyl)quinazoline-2,4(1H,3H)-dione] | 15 nM | 3.8 nM | 1460 nM |
| O=C(c1cccc(Cn2c(=O)[nH]c(=O)c3ccccc32)c1)N1CCN(C(=O)C2CCCCC2)CC1 [Example 26, 1-(3-(4-(Cyclohexylcarbonyl)piperazine-1-carbonyl)benzyl)quinazoline-2,4(1H,3H)-dione] | 149 nM | 20 nM | 400 nM |
